# Test results: the supplement of paper PMC10307832
# Compound: COC1=CC=C(C=C1)CN2C=CC3=C2C=C(C=C3)C(=O)NO + Cc1cc(Nc2cc(N3CCN(C)CC3)nc(Sc3ccc(NC(=O)C4CC4)cc3)n2)n[nH]1 [Tozasertib] (partner 0.1 µM)
# Assay: relative viability (nuclei count vs DMSO), 5 days (fraction); higher = more cells survive
# Settings: first compound 8 µM
# Summary of the method: (§1)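 One day after seeding in 1536-well plates, lung cancer cell lines were dosed by pin tool. Dosing was either single-drug or a fixed anchor-drug dose plus five library-drug doses (not always all listed) in √10 steps. After 5 days, nuclei were stained in one fix-and-stain step and counted on 4× images, and relative viability is the nuclei count of treated wells over that of vehicle wells, given as the median of duplicate plates.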
row,Cell Line,relative viability
1,NCI-H2087,0.234
2,NCI-H441,0.493
3,HOP-62,0.349
4,NCI-H2170,0.616

# Compound: COC1=CC=C(C=C1)CN2C=CC3=C2C=C(C=C3)C(=O)NO + NC(=O)Nc1cc(-c2cccc(F)c2)sc1C(=O)N[C@H]1CCCNC1 [AZD7762] (partner 0.2 µM)
# Assay: as above
# Settings: first compound 0.08 µM
# Summary of the method: as §1
row,Cell Line,relative viability
1,HCC-78,0.575
2,PC-14,0.263
3,LC-2-ad,0.905
4,NCI-H1651,0.414
5,HCC-827,0.228
6,LCLC-103H,0.764
7,RERF-LC-KJ,0.888
8,NCI-H3122,0.977
9,BEN,0.628
10,NCI-H2085,0.971
11,A-427,0.544
12,NCI-H727,0.653
13,NCI-H838,0.694
14,201T,0.561
15,NCI-H1666,0.799
16,NCI-H650,0.944
17,NCI-H1993,0.746
18,NCI-H2126,1
19,NCI-H1755,0.395
20,PC-3 [JPC-3],0.799
21,NCI-H2087,1.31
22,NCI-H441,1.08
23,HOP-62,0.358
24,NCI-H2170,0.859

# Same assay, conditions: first compound 0.253 µM
row,Cell Line,relative viability
1,NCI-H1395,0.394
2,NCI-H358,0.54
3,HCC-78,1.21
4,EKVX,0.637
5,EPLC-272H,0.253
6,LK-2,0.439
7,PC-14,0.276
8,LXF-289,1.06
9,LC-2-ad,0.874
10,NCI-H1651,0.437
11,HCC-827,0.259
12,LCLC-103H,0.851
13,RERF-LC-KJ,0.773
14,NCI-H3122,1.02
15,BEN,0.507
16,LCLC-97TM1,0.267

row,Cell Line,relative viability
1,NCI-H2085,0.953
2,NCI-H727,0.538
3,NCI-H838,0.981
4,NCI-H1793,0.726
5,201T,0.676
6,LOU-NH91,0.749
7,NCI-H1666,0.872
8,NCI-H650,0.686
9,NCI-H1993,0.745
10,NCI-H647,0.437
11,NCI-H2126,1.03
12,NCI-H1755,0.439
13,NCI-H2087,1.24
14,NCI-H441,1.3
15,HOP-62,0.691
16,NCI-H2170,0.797

# Same assay, conditions: first compound 0.8 µM
row,Cell Line,relative viability
1,NCI-H1395,0.382
2,NCI-H358,0.443
3,HCC-78,0.589
4,EKVX,0.699
5,EPLC-272H,0.196
6,LK-2,0.45
7,PC-14,0.393
8,LXF-289,1.04
9,LC-2-ad,0.865
10,NCI-H1651,0.394
11,HCC-827,0.159
12,LCLC-103H,0.809
13,RERF-LC-KJ,0.918
14,NCI-H3122,1.04
15,BEN,0.628
16,LCLC-97TM1,0.205
17,NCI-H2085,1.07

row,Cell Line,relative viability
1,A-427,0.671
2,NCI-H727,0.57
3,NCI-H838,0.949
4,NCI-H1793,0.444
5,201T,0.528
6,LOU-NH91,0.756
7,NCI-H1666,0.782
8,NCI-H650,0.816
9,NCI-H1993,0.857
10,NCI-H647,0.495
11,NCI-H2126,0.992
12,NCI-H1755,0.497
13,PC-3 [JPC-3],0.965
14,NCI-H2087,1.5
15,NCI-H441,1.19
16,HOP-62,0.72
17,NCI-H2170,0.849

# Same assay, conditions: first compound 2.53 µM
row,Cell Line,relative viability
1,NCI-H1395,0.398
2,NCI-H358,0.557
3,HCC-78,0.512
4,EKVX,0.803
5,EPLC-272H,0.229
6,LK-2,0.352
7,PC-14,0.315
8,LXF-289,1.07
9,LC-2-ad,0.898
10,NCI-H1651,0.406
11,HCC-827,0.218
12,LCLC-103H,0.851
13,RERF-LC-KJ,0.948
14,NCI-H3122,0.999
15,BEN,0.594
16,LCLC-97TM1,0.162
17,NCI-H2085,1

row,Cell Line,relative viability
1,A-427,0.696
2,NCI-H727,0.503
3,NCI-H838,0.967
4,NCI-H1793,0.557
5,201T,0.642
6,LOU-NH91,0.748
7,NCI-H1666,0.784
8,NCI-H650,1.1
9,NCI-H1993,0.8
10,NCI-H647,0.361
11,NCI-H2126,1.09
12,NCI-H1755,0.516
13,PC-3 [JPC-3],0.869
14,NCI-H2087,1.17
15,NCI-H441,1.2
16,HOP-62,0.554
17,NCI-H2170,0.826

# Same assay, conditions: first compound 8 µM
row,Cell Line,relative viability
1,NCI-H1395,0.397
2,NCI-H358,0.354
3,HCC-78,0.496
4,EKVX,0.712
5,EPLC-272H,0.185
6,LK-2,0.375
7,PC-14,0.381
8,LXF-289,1.02
9,LC-2-ad,0.835
10,NCI-H1651,0.369
11,HCC-827,0.196
12,LCLC-103H,0.679
13,RERF-LC-KJ,0.967
14,NCI-H3122,0.819
15,BEN,0.549
16,LCLC-97TM1,0.188
17,NCI-H2085,0.942

row,Cell Line,relative viability
1,A-427,0.476
2,NCI-H727,0.654
3,NCI-H838,0.909
4,NCI-H1793,0.406
5,201T,0.586
6,LOU-NH91,0.705
7,NCI-H1666,0.765
8,NCI-H650,0.763
9,NCI-H1993,0.85
10,NCI-H647,0.369
11,NCI-H2126,0.962
12,NCI-H1755,0.35
13,PC-3 [JPC-3],0.652
14,NCI-H2087,1.25
15,NCI-H441,0.887
16,HOP-62,0.484
17,NCI-H2170,0.711
